# Assay results published in patent US20010046963A1, “Novel use of flavones” (priority 2000, published 2001).
# Legend:
# NFχB mRNA = assay: Semi-quantitative RT-PCR determination of NFχB mRNA levels in HT-29 cells; type: cell-based; settings: for NFχB/GAPDH [AUC]: 150 μM flavone, n = 4
# Protocol: (§1) HT-29 cells (passage 106) were provided by ATCC and used between passage 150 and 200. Cells were cultured and passaged in RPMI-1640 supplemented with […] and 2 mM glutamine (all from GIBCO, Eggenstein, Germany). Antibiotics added were 100 U/ml penicillin and 100 μg/ml streptomycin (GIBCO). The cultures were maintained in a humidified atmosphere of 95% air and 5% CO2 at 37° C. Cells were passaged at preconfluent densities by the use of a solution containing 0.05% trypsin and 0.5 mM EDTA (GIBCO).
# (§2) RNA from HT-29 cells was isolated at the times indicated in table 5 according to the method described by Chomczynski and Sacchi Anal. Biochem. 162 (1987) 156 with slight modifications. Reverse transcription was done with 5 μg of isolated RNA. First strand cDNA synthesis was accomplished with an oligo-(dT)15 primer (MBI Fermentas). Amplification of sequence specific fragments (Taq Polymerase was from Sigma) was performed with 30 cycles (95° C. denaturation for 1 min, 55° C. hybridization for 2 min, 72° C. extensions for 2 min; Personal Cycler, Biometra, Göttingen, Germany). RT-PCR products were separated on a 1% agrose gel and visualized by ethidium bromide. The amount of first strand used to amplify specific sequences was derived from the linear range of amplification. The amplified GAP-DH sequence was used as a constitutively expressed control. The amplivied products were photographed and the intensity of the bands was analyzed by the SigmaGel software. No products were obtained for all genes without reverse transcription […]. A λ-DNA/EcoRI+HindIII marker (MBI Fermentas) was used in all PCR experiments as a size control of the amplified products. Amplified cDNA sequences (primers were custom synthesized by Eurogentec, Seraing, Belgium) were GAP-DH: bp 558-1010; COX-2: bp 1366-1870, NFχB:bp 2832-3401.
# (§3) That this effect on gene expression occurred selectively was shown by unaltered mRNA levels of the tumor suppressor p53.
# (§4) Semi-quantitative determination of COX-2 and NFχB mRNA levels in HT-29 cells by use of RT-PCR (n=4).
# COX-2 mRNA = assay: Semi-quantitative RT-PCR determination of COX-2 mRNA levels in HT-29 cells; type: cell-based; settings: for COX-2/GAPDH [AUC]: HT-29 cells, 150 μM flavone, n = 4
# Protocol: as §1, §2, §3, §4
smiles,measurement,setting,value
"O=c1cc(-c2ccccc2)oc2ccccc12 [flavone, Flavone]",NFχB/GAPDH [AUC],NFχB mRNA; incubation time 3 h,1.1 AUC
same,NFχB/GAPDH [AUC],NFχB mRNA; incubation time 8 h,1.7 AUC
same,mRNA of NFχB (in words),NFχB mRNA; flavone treatment,reduced dramatically
same,COX-2 transcript levels (in words),COX-2 mRNA; HT-29 cells exposed to flavone for 48 h,diminished in its transcript levels drastically
same,COX-2/GAPDH [AUC],COX-2 mRNA; incubation time 3 h,0.69 AUC
same,COX-2/GAPDH [AUC],COX-2 mRNA; incubation time 8 h,0.35 AUC
